“And” between values parts separate entries of the source, which are not always exact repeats. Equal entries are not always repeated.
Legend:
human PBMC [1] = assay: LPS concentration optimization, cytokine release in human PBMC (Phase 1); assay type: cell-based; conditions: for IL-2 Mean Concentration in supernatant / IFN-g Mean Concentration in supernatant: Donors 1-3; for IL-2 Mean Concentration in supernatant: LLOQ = 2.387 pg/mL; for IFN-g Mean Concentration in supernatant: LLOQ = 2.872 pg/mL; for IL-1β Mean Concentration in supernatant / IL-6 Mean Concentration in supernatant / TNF-α Mean Concentration in supernatant: individual Donors 1-3
human PBMC [2] = assay: LPS stimulated cytokine secretion in human PBMC pretreated with compounds (Phase 2); assay type: cell-based; conditions: LPS alone, 1 ng/mL, 8-hour stimulation; for IL-2 concentration in supernatant: LLOQ = 1.698 pg/mL; for TNF-α concentration in supernatant: LLOQ = 2.018 pg/mL; for IL-1β concentration in supernatant: LLOQ = 2.299 pg/mL; for IFN-g concentration in supernatant: LLOQ = 2.792 pg/mL; for IL-6 concentration in supernatant: LLOQ = 0.831
From the text: Results are represented as fold-change relative to LPS treatment alone for each cytokine calculated by means from 3 separate donors.
RPMI medium alone, RPMI supplemented with 0.2% DMSO (to mimic treatment conditions) or LPS stimulation alone were used as controls.
Except for the two negative control conditions, all 3 donors responded to all experimental conditions tested with the secretion of TNF-α, IL-1β, and IL-6 albeit with a high degree of variability.

## Lipopolysaccharide [LPS]
Human PBMC [1]; 1 ng/mL LPS, after 8 hours
  Secretion of IL-1b, IL-6 and TNF-α: robust secretion
  Secretion of IL-2 or IFN-g: No secretion
Human PBMC [1]; LPS 1 ng/mL, 8-hour
  IL-2 Mean Concentration in supernatant: <LLOQ
  IFN-g Mean Concentration in supernatant: <LLOQ
  IL-1β Mean Concentration in supernatant: 403.43 pg/mL and 575.75 pg/mL and 1756.56 pg/mL (2×)
  IL-6 Mean Concentration in supernatant: 64.83 pg/mL and 659.3 pg/mL and 1103.64 pg/mL (2×)
  TNF-α Mean Concentration in supernatant: 670.9 pg/mL and 817.83 pg/mL and 1149.23 pg/mL (2×)
Human PBMC [1]; LPS 1 ng/mL, 24-hour
  IL-2 Mean Concentration in supernatant: <LLOQ
  IFN-g Mean Concentration in supernatant: <LLOQ
  IL-1β Mean Concentration in supernatant: 923.42 pg/mL and 1164.43 pg/mL and 2396.79 pg/mL
  IL-6 Mean Concentration in supernatant: 1284.85 pg/mL and 1269.72 pg/mL and 1897.32 pg/mL
  TNF-α Mean Concentration in supernatant: 1768.29 pg/mL and 2299.94 pg/mL and 2108.58 pg/mL
Human PBMC [1]; LPS 10 ng/mL, 8-hour
  IL-2 Mean Concentration in supernatant: <LLOQ
  IFN-g Mean Concentration in supernatant: <LLOQ
  IL-1β Mean Concentration in supernatant: 404.91 pg/mL and 879.72 pg/mL and 1768.06 pg/mL
  IL-6 Mean Concentration in supernatant: 192.2 pg/mL and 830.13 pg/mL and 1084.03 pg/mL
  TNF-α Mean Concentration in supernatant: 912.13 pg/mL and 955.81 pg/mL and 1113.95 pg/mL
Human PBMC [1]; LPS 10 ng/mL, 24-hour
  IL-2 Mean Concentration in supernatant: <LLOQ
  IFN-g Mean Concentration in supernatant: <LLOQ
  IL-1β Mean Concentration in supernatant: 986.68 pg/mL and 1038.39 pg/mL and 2391.98 pg/mL
  IL-6 Mean Concentration in supernatant: 1393.01 pg/mL and 1167.49 pg/mL and 2016.76 pg/mL
  TNF-α Mean Concentration in supernatant: 2316.87 pg/mL and 1605.58 pg/mL and 2139.91 pg/mL
Human PBMC [1]; LPS 50 ng/mL, 8-hour
  IL-2 Mean Concentration in supernatant: <LLOQ
  IFN-g Mean Concentration in supernatant: <LLOQ
  IL-1β Mean Concentration in supernatant: 327.69 pg/mL and 1002.11 pg/mL and 1751.4 pg/mL
  IL-6 Mean Concentration in supernatant: 75.24 pg/mL and 880.71 pg/mL and 1096.09 pg/mL
  TNF-α Mean Concentration in supernatant: 511.42 pg/mL and 1143.84 pg/mL and 1051.41 pg/mL
Human PBMC [1]; LPS 50 ng/mL, 24-hour
  IL-2 Mean Concentration in supernatant: <LLOQ
  IFN-g Mean Concentration in supernatant: <LLOQ
  IL-1β Mean Concentration in supernatant: 899.92 pg/mL and 1170.32 pg/mL and 2216.54 pg/mL
  IL-6 Mean Concentration in supernatant: 1317.99 pg/mL and 1333.24 pg/mL and 1966.58 pg/mL
  TNF-α Mean Concentration in supernatant: 1680.24 pg/mL and 1378.24 pg/mL and 1954.44 pg/mL
Human PBMC [1]; LPS 100 ng/mL, 8-hour
  IL-2 Mean Concentration in supernatant: <LLOQ
  IFN-g Mean Concentration in supernatant: <LLOQ
  IL-1β Mean Concentration in supernatant: 298.82 pg/mL and 873.62 pg/mL and 1222.41 pg/mL
  IL-6 Mean Concentration in supernatant: 37.62 pg/mL and 820.5 pg/mL and 817.27 pg/mL
  TNF-α Mean Concentration in supernatant: 386.41 pg/mL and 1313.93 pg/mL and 868.83 pg/mL
Human PBMC [1]; LPS 100 ng/mL, 24-hour
  IL-2 Mean Concentration in supernatant: <LLOQ
  IFN-g Mean Concentration in supernatant: <LLOQ
  IL-1β Mean Concentration in supernatant: 913.95 pg/mL and 1182.07 pg/mL and 2282.4 pg/mL
  IL-6 Mean Concentration in supernatant: 1390.38 pg/mL and 1243.06 pg/mL and 2083.25 pg/mL
  TNF-α Mean Concentration in supernatant: 1792.89 pg/mL and 1332.65 pg/mL and 2343.08 pg/mL
Human PBMC [1]; LPS 1000 ng/mL, 8-hour
  IL-2 Mean Concentration in supernatant: <LLOQ
  IFN-g Mean Concentration in supernatant: <LLOQ
  IL-1β Mean Concentration in supernatant: 1008.83 pg/mL and 1979.93 pg/mL and 441.01 pg/mL
  IL-6 Mean Concentration in supernatant: 895.76 pg/mL and 1251.62 pg/mL and 166.25 pg/mL
  TNF-α Mean Concentration in supernatant: 1276.06 pg/mL and 1481.27 pg/mL and 498.68 pg/mL
Human PBMC [1]; LPS 1000 ng/mL, 24-hour
  IFN-g Mean Concentration in supernatant: <LLOQ
  IL-1β Mean Concentration in supernatant: 1145.77 pg/mL and 2192.5 pg/mL and 799.96 pg/mL
  IL-6 Mean Concentration in supernatant: 1519.68 pg/mL and 2426.8 pg/mL and 1363.37 pg/mL
  TNF-α Mean Concentration in supernatant: 2286.74 pg/mL and 3069.72 pg/mL and 1675.83 pg/mL
Human PBMC [1]; LPS ≥1 ng/mL, 8 and 24 hours, all donors
  Production of TNF-α, IL-1β, and IL-6: robust production
Human PBMC [2]; Donor 1
  IL-2 concentration in supernatant: <LLOQ
  TNF-α concentration in supernatant: 1417.82 pg/mL
  IL-1β concentration in supernatant: 2362.87 pg/mL
  IFN-g concentration in supernatant: <LLOQ
  IL-6 concentration in supernatant: 863.49 pg/mL
Human PBMC [2]; Donor 2
  IL-2 concentration in supernatant: <LLOQ
  TNF-α concentration in supernatant: 1375.72 pg/mL
  IL-1β concentration in supernatant: 2485.92 pg/mL
  IFN-g concentration in supernatant: <LLOQ
  IL-6 concentration in supernatant: 760.26 pg/mL
Human PBMC [2]; Donor 3
  IL-2 concentration in supernatant: <LLOQ
  TNF-α concentration in supernatant: 4449.11 pg/mL
  IL-1β concentration in supernatant: 3881.34 pg/mL
  IFN-g concentration in supernatant: <LLOQ
  IL-6 concentration in supernatant: 760.26 pg/mL
